According to the NIST ThermoML archive (doi:10.1016/j.jct.2013.01.023):

Experiment: mn = molality of the nth substance listed, in mol/kg
Settings: 101 kPa, Liquid; for mass density: Vibrating tube method; for speed of sound: Pulse-echo method

CNCC(=O)O [sarcosine] + O
Settings | mass density, 288.15 K [kg/m3] | mass density, 293.15 K [kg/m3] | mass density, 298.15 K [kg/m3] | mass density, 303.15 K [kg/m3] | mass density, 308.15 K [kg/m3] | speed of sound, 298.15 K [m/s]
m1 = 0.05883 | 1000.7 | 999.78 | 998.598 | 997.176 | 995.552 | 1500.3
m1 = 0.1166 | 1002.25 | 1001.31 | 1000.12 | 998.68 | 997.042 | 1503.9
m1 = 0.1777 | 1003.88 | 1002.92 | 1001.7 | 1000.25 | 998.599 | 1507.7
m1 = 0.2363 | 1005.42 | 1004.43 | 1003.2 | 1001.74 | 1000.07 | 1511.3
m1 = 0.2987 | 1007.05 | 1006.03 | 1004.79 | 1003.31 | 1001.63 | 1515.2

NCC(=O)O [2-aminoacetic acid] + O
Settings | mass density, 288.15 K [kg/m3] | mass density, 293.15 K [kg/m3] | mass density, 298.15 K [kg/m3] | mass density, 303.15 K [kg/m3] | mass density, 308.15 K [kg/m3] | speed of sound, 298.15 K [m/s]
m1 = 0.06261 | 1001.13 | 1000.21 | 999.029 | 997.604 | 995.978 | 1499.9
m1 = 0.1199 | 1002.98 | 1002.03 | 1000.83 | – | 997.751 | 1502.8
m1 = 0.1769 | 1004.8 | 1003.84 | 1002.62 | 1001.15 | 999.494 | 1505.8
m1 = 0.2352 | 1006.65 | 1005.66 | 1004.42 | 1002.94 | 1001.28 | 1508.8
m1 = 0.2963 | 1008.56 | 1007.54 | 1006.29 | 1004.79 | 1003.12 | 1512

C[N+](C)(C)CC(=O)[O-] [(trimethylammonio)acetate] + O
Settings | mass density, 288.15 K [kg/m3] | mass density, 293.15 K [kg/m3] | mass density, 298.15 K [kg/m3] | mass density, 303.15 K [kg/m3] | mass density, 308.15 K [kg/m3] | speed of sound, 298.15 K [m/s]
m1 = 0.06226 | 1000.25 | 999.33 | 998.149 | 996.726 | 995.1 | 1501.3
m1 = 0.125 | 1001.4 | 1000.46 | 999.253 | 997.814 | 996.18 | 1505.9
m1 = 0.1884 | 1002.54 | 1001.57 | 1000.35 | 998.899 | 997.254 | 1510.5
m1 = 0.2532 | 1003.69 | 1002.7 | 1001.46 | 999.994 | 998.337 | 1515.2
m1 = 0.3185 | 1004.83 | 1003.83 | 1002.56 | 1001.08 | 999.42 | 1519.9

CN(C)CC(=O)O [(Dimethylamino)acetic acid] + O
Settings | mass density, 288.15 K [kg/m3] | mass density, 293.15 K [kg/m3] | mass density, 298.15 K [kg/m3] | mass density, 303.15 K [kg/m3] | mass density, 308.15 K [kg/m3] | speed of sound, 298.15 K [m/s]
m1 = 0.05966 | 1000.46 | 999.537 | 998.354 | 996.925 | 995.303 | 1500.9
m1 = 0.119 | 1001.8 | 1000.85 | 999.646 | 998.203 | 996.574 | 1505.1
m1 = 0.1791 | 1003.14 | 1002.16 | 1000.94 | 999.477 | 997.836 | 1509.4
m1 = 0.2399 | 1004.48 | 1003.48 | 1002.23 | 1000.75 | 999.104 | 1513.6
m1 = 0.3007 | 1005.8 | 1004.78 | 1003.51 | 1002.02 | 1000.37 | 1517.9

C[N+](C)(C)[O-] [trimethylamine oxide] + O
Settings | mass density, 288.15 K [kg/m3] | mass density, 293.15 K [kg/m3] | mass density, 298.15 K [kg/m3] | mass density, 303.15 K [kg/m3] | mass density, 308.15 K [kg/m3] | speed of sound, 298.15 K [m/s]
m1 = 0.0592 | 999.725 | 998.807 | 997.629 | 996.213 | 994.58 | 1500.9
m1 = 0.1182 | 1000.29 | 999.358 | 998.163 | 996.73 | 995.083 | 1505.1
m1 = 0.1768 | 1000.88 | 999.919 | 998.707 | 997.258 | 995.602 | 1509.2
m1 = 0.2361 | 1001.44 | 1000.47 | 999.234 | 997.769 | 996.09 | 1513.3
m1 = 0.2958 | 1002.09 | 1001.09 | 999.839 | 998.357 | 996.661 | 1517.4
